Experiments:
[1] = system: pYpY peptide; test: Detection of pY and pYpY peptides with non-pyrene excimer forming derivatives; format: binding; settings: for excimer emission peak in response to pYpY peptide in fluorescence emission spectra / peak when pYpY spectra are divided by those of pY or buffer control: 250 μM Zn^2+ triflate complexes, 125 μM peptide, irradiated at 290 nm; for detection limit of pYpY peptide, selectively over pY peptide: 250 μM compound in complex with Zn^2+ (triflate salt), pH 7.5 50 mM HEPES, 10% DMSO
Description: Non-pyrene excimer forming derivatives (compounds 4-7) were synthesized and assessed for their ability to sense proximally phosphorylated peptides. All experiments for these derivatives were performed in pH 7.5 50 mM HEPES, 10% DMSO. 125 μM pY and pYpY peptides were combined with 250 μM of compounds 4, 5 and 6 (Zn^2+ triflate complexes), or buffer as background control, and the solution was irradiated at 290 nm and fluorescence emission scan was recorded. […] These peaks indicate that the spike in response to the addition of pYpY corresponds to excimer formation, since 420 nm region corresponds to a roughly 100 nm shift from the monomer emission maximum (approximately at 330 nm).
pY and pYpY peptides were titrated into 250 μM of compound 4 in complex with Zn^2+ (triflate salt) in pH 7.5 50 mM HEPES, 10% DMSO. […] Time-resolved experiments were also conducted, where the delay time prior to acquisition of fluorescence was varied (0, 5, 10, and 15 μs; FIG. 21). In this case, the concentration of compound 4 in complex with Zn^2+ (triflate salt) was constant at 40 μM.
pY and pYpY peptides were also titrated into 250 μM of compound 5 in complex with Zn^2+ (triflate salt) in pH 7.5, 50 mM HEPES, 10% DMSO. The fluorescence emission spectra (FIG. 23) indicate a pYpY-selective enhancement in the excimer region of the fluorophore.

[2] = system: proximally phosphorylated peptides; test: Detection of proximally phosphorylated peptides in aqueous solution (384 well plate, emission 476 nm); format: binding; settings: Zn^2+ (triflate salt) complex; pH 7.5, 50 mM HEPES, 5% DMSO
Description: In one example 40 μM of compound 1 pre-metallated with zinc(II) triflate (referred to as “Zn^2+ pre-metallation” in FIG. 13; procedure described in example) was titrated with 80-0.04 μM of pY and pYpY peptides in 50 mM HEPES pH 7.5, 5% DMSO. In another example, 40 μM of compound 1 was dissolved in 50 mM HEPES pH 7.5, 5% DMSO, which contained 40 μM of zinc(II) triflate (referred to as “in situ Zn^2+ metallation” in FIG. 13) and was titrated with 80-0.04 μM of pY and pYpY peptides. Fluorescence measurements were performed as described in Example 2.
(§1) Various conditions for the detection of proximally phosphorylated peptides and proteins in aqueous solution are shown in Table 1. For the screens, analytes (peptides) were dissolved in a specific buffer at various concentrations (normally 100 μM to 40 nM), and combined with 40 μM of compound 1 in complex with Zn^2+ (triflate salt) dissolved in the same buffer on a 384 well flat bottom black plate. The mixture was incubated for 20 minutes and fluorescence emission intensity at 476 nm (10-20 nm bandwidth) was measured using a Tecan M1000 microplate reader, upon excitation at 350 nm (5 nm bandwidth) at 400 Hz. The different conditions tested were assessed based on the ratios of signal intensity of positive to negative control analytes and signal intensity in general.
Peptides containing two phosphotyrosine residues, spaced by 2-5 alanine residues, were titrated into 40 μM solution of compound 1 in complex with Zn^2+ (triflate salt) (pH 7.5 50 mM HEPES, 10% propylene, 25 mM NaCl) from 80 μM to 40 nM (FIG. 16). Y-axis is Δ Fluorescence Intensity as defined by the formula in example 2.
Using the same methods as described in Example 6, Zn^2+ (triflate salt) complexes of compounds 1, compound 9, compound 15, compound 14 were tested in pH 7.5, 50 mM HEPES, 25 mM NaCl, 10% propylene glycol.
Using the same methods as described in Example 6, Zn^2+ (triflate salt) complexes of compound 1 and compound 12 were tested in pH 7.5, 50 mM HEPES, 5% DMSO.

[3] = system: proximally phosphorylated proteins (α-casein, β-casein and D-α-casein); test: In-solution detection of proteins; format: binding, Bos taurus; settings: pH 7.5, 50 mM HEPES; for efficiency at detecting the proximally phosphorylated proteins: Zn^2+ (triflate salt) complexes, 75 mM NaCl, 20% DMSO
From the text: Non-phosphorylated (BSA and lysozyme) and distally phosphorylated negative control proteins (ovalbumin) were used in detection methods for in-solution, on gel and on blot applications. Dephosphorylated α-casein (D-α-casein), β-casein and α-casein served as proximally phosphorylated positive controls (see Table 2). The phosphosites presented in Table 2 were obtained from the PhosphoSitePlus database or a UniProt database.
as §1, with “proteins” for “peptides”, “3. Proteins” for “1. For the screens, analytes (peptides)”, “a” for “a specific”, “general. Among the parameters assessed in this study and using these specific control proteins, the following conditions were selected for proteins studies: pH 5.5 50 mM NaOAc, 50 mM NaCl, 5% DMSO (see FIG. 27). […] Depending on the number of proximally di-phosphorylated sites, lower detection limits could be achieved by using lower concentration of a sensor.” for “general.”
Using same methods as described in Example 1.1c, Zn^2+ (triflate salt) complexes of compounds 1 (top left), compound 9 (top right), compound 15 (middle left), and compound 14 (middle right) were tested in pH 7.5, 50 mM HEPES, 75 mM NaCl, 20% DMSO (see FIG. 28).
Using same methods as described in Example 14, 40 and 20 μM of Zn^2+ (triflate salt) complexes of compound 1 (top) and compound 12 (bottom) (FIG. 29), were tested in pH 7.5, 50 mM HEPES, 5% DMSO.
Using same methods as described above, 60, 40, 20 and 10 μM of Zn^2+ (triflate salt) complexed with compound 12 (FIG. 30), were titrated with 80-0.04 μM of proteins in pH 7.5, 50 mM HEPES, 5% DMSO.

[4] = biological target: T1, β-casein (Bos taurus, UniProt P02666); test: On-gel detection of proximally phosphorylated protein using GaCl3 complexes; format: binding
T1 construct: purchased Sigma Aldrich C6905-250MG
T1 sequence (P02666 16-224): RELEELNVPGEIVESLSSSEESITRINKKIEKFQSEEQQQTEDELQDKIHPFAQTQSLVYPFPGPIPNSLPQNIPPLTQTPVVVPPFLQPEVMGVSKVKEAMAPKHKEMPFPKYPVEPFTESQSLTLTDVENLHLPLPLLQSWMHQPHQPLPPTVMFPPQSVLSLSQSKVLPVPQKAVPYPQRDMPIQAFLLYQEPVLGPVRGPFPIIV
Description: (§2) Compound 8 was dissolved in 50 mM NaOAc buffer, pH 4.5, 50 mM NaCl, 10% DMSO and combined with 80, 160 or and 240 μM GaCl3 solutions. Each gel contained 4 lanes with equal amounts of BSA, ovalbumin (Ova), β-casein (β-cas) and lysozyme (Lyso) in each lane (left to right: 1, 0.5, 0.25 and 0.125 μg per protein per lane) (see FIG. 37). Gels were stained for 1 h with the sensor solution. Gels were first de-stained with 50 mM NaOAc buffer pH 4.5 for 2 h and then with 50 mM NaOAc buffer pH 4.0 20% acetonitrile for 40 h.
(§3) Compound 8 was dissolved in 100 mM NaOAc buffer, pH 4.5, 150 mM NaCl, 20% propylene glycol and combined with 10 and 15 μM GaCl3 solutions. Each gel contained 4 lanes with equal amounts of BSA, ovalbumin (Ova), β-casein (β-cas) and lysozyme (Lyso) in each lane (FIG. 40) left to right: 1, 0.5, 0.25 and 0.125 μg per protein per lane). Gels were stained for 1.5 h with the sensor solution. Destaining was performed for variable time (specified at the top) with 50 mM NaOAc, pH 4.0, 20% acetonitrile. Gels were rinsed with MiliQ water for 5 min prior to imaging. Images were acquired using ChemiDoc MP, using a 530 nm emission filter and UV trans excitation.
as §2, with “Compound 2” for “Compound 8”, “lane) (FIG. 42).” for “lane) (see FIG. 37).”, “h. […] However with the increased destaining time the intensity of β-casein band relative to other proteins was increasing, resulting in a 6.7-fold higher intensity over the distally phosphorylated protein ovalbumin. Lane containing 1 μg of each protein was analyzed (FIG. 43).” for “h.”
as §3, with “2” for “8”, “45)” for “40)”, “acetonitrile (see FIGS. 45 and 46).” for “acetonitrile.”

c1ccc2c(c1)cc(CN1CCNCCNCCNCC1)c1ccccc12 [compound 6, 1-(phenanthren-9-ylmethyl)-1,4,7,10-tetraazacyclododecane]
excimer emission peak in response to pYpY peptide in fluorescence emission spectra [1]: No distinct peak

c1cc2ccc3ccc(CN4CCCNCCNCCCNCC4)c4ccc(c1)c2c34 [compound 12, 1-(pyren-1-ylmethyl)-1,4,8,11-tetraazacyclotetradecane]
detecting proximally phosphorylated peptides [2]: potent | detection limit on lowering the concentration of the sensor ([3]; 60, 40, 20 and 10 μM Zn^2+ complex, 5% DMSO): improved

c1ccc2c(CN3CCNCCNCCNCC3)cccc2c1 [compound 4, 1-(naphthalen-1-ylmethyl)-1,4,7,10-tetraazacyclododecane]
excimer emission peak in response to pYpY peptide in fluorescence emission spectra [1]: No distinct peak | peak when pYpY spectra are divided by those of pY or buffer control [1]: distinct peak in the 420 nm region | detection limit of pYpY peptide, selectively over pY peptide [1]: single-digit | signal selectivity towards pYpY with 15 μs delay time ([1]; time-resolved, 40 μM compound in complex with Zn^2+): retained

c1cc2ccc3ccc(CCCCOCc4cc(CN5CCNCCNCCNCC5)cc(CN5CCNCCNCCNCC5)c4)c4ccc(c1)c2c34
melting point: 55 to 60 °C

c1ccc(CN(Cc2ccccn2)Cc2ccc3ccc4cccc5ccc2c3c45)nc1 [compound 14, 1-(pyren-1-yl)-N,N-bis(pyridin-2-ylmethyl)methanamine]
efficiency at detecting the proximally phosphorylated proteins [3]: comparable efficiency | melting point: 108 to 112 °C

c1ccc2cc(CN3CCNCCNCCNCC3)ccc2c1 [compound 5, 1-(naphthalen-2-ylmethyl)-1,4,7,10-tetraazacyclododecane]
excimer emission peak in response to pYpY peptide in fluorescence emission spectra [1]: No distinct peak | peak when pYpY spectra are divided by those of pY or buffer control [1]: distinct peak in the 420 nm region | detection limit of pYpY peptide, selectively over pY peptide [1]: single-digit

O=C(O)CN(CC(=O)O)c1ccccc1OCCOc1cc(NC(=O)c2ccc3ccc4cccc5ccc2c3c45)ccc1N(CC(=O)O)CC(=O)O [compound 8, 2,2′-((2-(2-(2-(bis(carboxymethyl)amino)-5-(pyrene-1-carboxamido)phenoxy)ethoxy)phenyl)azanediyl)diacetic acid]
selectivity for β-casein after 2 h destaining ([4]; 80 μM compound, 1:1 GaCl3, stained 1 h): improved | β-casein over distally phosphorylated ovalbumin ([4]; 80 μM compound, 1:1 GaCl3, stained 1 h, 40 h destaining, 1 μg per protein): 4.5 fold | selectivity for β-casein with more than 1:1 equivalent of compound:GaCl3 ([4]; 50 mM NaOAc pH 4.5, 50 mM NaCl, 10% DMSO, 160 or 240 μM GaCl3): did not result in good selectivity | selective staining for β-casein, no destaining ([4]; 100 mM NaOAc pH 4.5, 150 mM NaCl, 20% propylene glycol, 1:1 and 1:1.5 compound:GaCl3, stained 1.5 h): did not result in selective staining | staining of β-casein band following 16 h destain ([4]; 100 mM NaOAc pH 4.5, 150 mM NaCl, 20% propylene glycol, destain 50 mM NaOAc, pH 4.0, 20% acetonitrile): most prominently stained band

c1ccc(CN(CCCCc2ccc3ccc4cccc5ccc2c3c45)Cc2ccccn2)nc1 [compound 15, 4-(pyren-1-yl)-N,N-bis(pyridin-2-ylmethyl)butan-1-amine]
efficiency at detecting the proximally phosphorylated proteins [3]: comparable efficiency | melting point: 61 to 62 °C

O=C(Cc1ccc2ccc3cccc4ccc1c2c34)N1CCNCCNCCNCC1
melting point: 75 to 79 °C

O=C(CCCc1ccc2ccc3cccc4ccc1c2c34)N1CCNCCNCCNCC1
melting point: 83 to 86 °C

— US10889554B2, “Excimer forming compounds” (THE GOVERNING COUNCIL OF THE UNIVERSITY OF TORONTO, priority 2013, dated 2021)
